The text below walks through data of patent US20240336620A1, “PROTEIN D[…] AND METHODS OF USE” (AnHorn Medicines Co., Ltd., priority 2022, published 2024).

The target in this assay is T1, androgen receptor (Homo sapiens, UniProt P10275, T878A).
T1 construct: host or cells: LNCaP·FGC cells
T1 sequence (P10275 1-920 T878A): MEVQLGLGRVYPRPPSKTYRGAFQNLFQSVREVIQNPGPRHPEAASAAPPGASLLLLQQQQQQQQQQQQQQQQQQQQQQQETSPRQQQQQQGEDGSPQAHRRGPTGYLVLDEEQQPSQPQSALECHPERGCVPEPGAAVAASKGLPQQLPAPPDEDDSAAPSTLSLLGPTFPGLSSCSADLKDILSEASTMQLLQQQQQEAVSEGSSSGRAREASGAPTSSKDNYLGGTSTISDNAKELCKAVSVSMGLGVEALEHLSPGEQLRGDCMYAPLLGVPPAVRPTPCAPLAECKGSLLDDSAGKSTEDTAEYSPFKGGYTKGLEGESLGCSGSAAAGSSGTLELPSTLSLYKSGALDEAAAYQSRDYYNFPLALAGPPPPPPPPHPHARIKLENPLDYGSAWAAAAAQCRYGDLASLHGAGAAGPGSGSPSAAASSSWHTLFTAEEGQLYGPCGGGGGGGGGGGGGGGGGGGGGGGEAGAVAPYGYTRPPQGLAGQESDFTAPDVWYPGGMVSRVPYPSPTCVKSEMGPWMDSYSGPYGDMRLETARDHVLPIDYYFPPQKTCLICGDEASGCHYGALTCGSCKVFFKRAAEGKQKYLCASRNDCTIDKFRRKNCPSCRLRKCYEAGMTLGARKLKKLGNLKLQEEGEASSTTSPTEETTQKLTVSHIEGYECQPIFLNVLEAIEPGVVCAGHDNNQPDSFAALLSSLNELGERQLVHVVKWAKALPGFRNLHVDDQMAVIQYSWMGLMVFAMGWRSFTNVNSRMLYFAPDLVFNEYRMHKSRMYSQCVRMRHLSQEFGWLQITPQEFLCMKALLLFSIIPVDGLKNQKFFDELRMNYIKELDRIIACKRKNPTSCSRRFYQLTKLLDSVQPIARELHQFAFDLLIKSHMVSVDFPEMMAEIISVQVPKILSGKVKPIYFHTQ
In words: Androgen receptor degradation assay using Western blot analysis. It counts as cell-based. As to conditions: LNCaP·FGC cells, concentration needed for 50% AR degradation, serial dilutions. As to the method:
LNCaP·FGC cells (Cat. 60088, Bioresource Collection and Research Center, 15 HsinChu City, Taiwan R.O.C.) grown in RPMI 1640 (Cat. 31800022, Thermo Fisher Scientific, Waltham, Massachusetts, United States) medium supplemented with 10% FBS (Cat. 10437028, Thermo Fisher Scientific, Waltham, Massachusetts, United States), 10 mM HEPES (Cat. 15630080, Thermo Fisher Scientific, Waltham, Massachusetts, United States) and 1 mM sodium pyruvate (Cat. 11360070, Thermo 20 Fisher Scientific, Waltham, Massachusetts, United States) were seeded at 2×10^5 cells per well in 24-well tissue culture plates. […] After the treatment, the cells were harvested, washed by PBS, and lysed with RIPA lysis and extraction buffer (Cat. 25 89900, Thermo Fisher Scientific, Waltham, Massachusetts, United States) supplemented with Halt Protease Inhibitor Cocktail (Cat. 78430, Thermo Fisher Scientific, Waltham, Massachusetts, United States) to collect protein samples. Cells not treated with any of the above-mentioned compounds are used as a negative control.
The protein samples were separated by polyacrylamide gel electrophoresis, and then transferred to a piece of Immuno-Blot PVDF membrane (Cat. 1620177, Bio-Rad Laboratories, Hercules, California, United States). The presence of androgen receptor in the protein samples was detected by standard Western blotting procedure using an anti-AR antibody (1:2000 dilution) (Cat. 5153, Cell Signaling Technology Inc., Danvers, Massachusetts, United States) and a goat anti-rabbit HRP-conjugated secondary antibody (1:5000 dilution) (C04003, Croyez Bioscience Co., Ltd., Taipei City, Taiwan R.O.C.). The internal loading control GAPDH was detected using a mouse monoclonal antibody (1:5000) (GTX627408, GeneTex International Corp., HsinChu City, Taiwan R.O.C.) and a goat anti-mouse HRP-conjugated secondary antibody (1:5000 dilution) (C04001, Croyez Bioscience Co., Ltd., Taipei City, Taiwan R.O.C.). Chemiluminescence signals were developed using Clarity Western ECL substrate (Cat. 1705061, Bio-Rad Laboratories, Hercules, California, United States) and detected with digital imager iBright FL1500 (Invitrogen Corp., Carlsbad, California, United States).
Compounds 1-16 were selected and serial diluted (1Ox) with RPMI medium for treating LNCaP·FGC cells. A calibration curve was determined by the serial diluted samples for each compound, and the concentration needed for 50% AR degradation (AR DC50) for each compound was calculated. “Cpd. ID” indicates the compound ID number in Table 1.
On the technique in general: In western blotting, separated proteins are transferred to a membrane and probed.

With `CCn1c2c(c3ccc(C4CCN(CC5CN(c6ccc(-c7ccc8c(c7)C(C)(C)C(=O)N8c7ccc(C#N)c(Cl)c7)c(F)n6)C5)CC4)cc31)C(=O)N(C1CCC(=O)NC1=O)C2=O` (stereo not shown) [Compound 3], the DC50 is 200 to 1000 nM.

Molecule `CCn1c2c(c3ccc(OCCCN4CCN(c5ccc(-c6ccc7c(c6)C(C)(C)C(=O)N7c6ccc(C#N)c(Cl)c6)c(F)n5)CC4)cc31)C(=O)N(C1CCC(=O)NC1=O)C2=O` (stereo not shown) [Compound 4] registered a DC50 of 200 to 1000 nM. `CCn1c2c(c3ccc(N4CCN(CC5CN(c6ccc(-c7ccc8c(c7)C(C)(C)C(=O)N8c7ccc(C#N)c(Cl)c7)c(F)n6)C5)CC4)cc31)C(=O)N(C1CCC(=O)NC1=O)C2=O` (stereo not shown) [Compound 12] came in with a DC50 below 200 nM.

`Cn1c2c(c3ccc(OC4CCN(CC5CN(c6ccc(-c7ccc8c(c7)C(C)(C)C(=O)N8c7ccc(C#N)c(Cl)c7)c(F)n6)C5)CC4)cc31)C(=O)N(C1CCC(=O)NC1=O)C2=O` (stereo not shown) [Compound 2] registered a DC50 of at least 1000 nM. In the case of `Cn1c2c(c3ccc(N4CCN(CC5CN(c6ccc(-c7ccc8c(c7)C(C)(C)C(=O)N8c7ccc(C#N)c(Cl)c7)c(F)n6)C5)CC4)cc31)C(=O)N(C1CCC(=O)NC1=O)C2=O` (stereo not shown) [Compound 1], the DC50 fell in the range of 200 to 1000 nM.

`Cn1c2c(c3ccc(N4CCN(CC5CCN(c6ccc(-c7ccc8c(c7)C(C)(C)C(=O)N8c7ccc(C#N)c(Cl)c7)nn6)CC5)CC4)cc31)C(=O)N(C1CCC(=O)NC1=O)C2=O` (stereo not shown) [Compound 11] gave a DC50 of at least 1000 nM.

In turn, `Cn1c2c(c3ccc(C4CCN(CC5CCN(c6ccc(-c7ccc8c(c7)C(C)(C)C(=O)N8c7ccc(C#N)c(Cl)c7)c(F)n6)CC5)CC4)cc31)C(=O)N(C1CCC(=O)NC1=O)C2=O` (stereo not shown) [Compound 8] gave a DC50 of 200 to 1000 nM.

Consider `CCn1c2c(c3ccc(N4CCN(CC5CCN(c6ccc(-c7ccc8c(c7)C(C)(C)C(=O)N8c7ccc(C#N)c(Cl)c7)c(F)n6)CC5)CC4)cc31)C(=O)N(C1CCC(=O)NC1=O)C2=O` (stereo not shown) [Compound 9], for which the DC50 fell in the range of 200 to 1000 nM.

`CCn1c2c(c3ccc(OCCN4CCN(c5ccc(-c6ccc7c(c6)C(C)(C)C(=O)N7c6ccc(C#N)c(Cl)c6)c(F)n5)CC4)cc31)C(=O)N(C1CCC(=O)NC1=O)C2=O` (stereo not shown) [Compound 15] yielded a DC50 of 200 to 1000 nM.

For `Cn1c2c(c3ccc(N4CCN(CC5CCN(c6ccc(-c7ccc8c(c7)C(C)(C)C(=O)N8c7ccc(C#N)c(Cl)c7)c(F)n6)CC5)CC4)cc31)C(=O)N(C1CCC(=O)NC1=O)C2=O` (stereo not shown) [Compound 5], the DC50 was at least 1000 nM.

By DC50 is commonly meant the concentration at which degradation of the target reaches its halfway point. High values mean a less potent degrader, low ones a more potent degrader.
